{"source": "patent US9249153B2", "about": "“Pharmaceutical composition for treating aging-associated diseases, containing progerin expression inhibitor as active ingredient, and screening method of said progerin expression inhibitor” (PUSAN NATIONAL UNIVERSITY INDUSTRY-UNIVERSITY COOPERATION …, priority 2011, dated 2016)", "key": {"p53 [1]": {"test_system": "p53", "test": "p53 induction in human fibroblasts (normal, HGPS, WS)", "format": "cell-based", "experimental": "Whole cell lysates were prepared in RIPA buffer, and centrifuged at 14,000 rpm for 30 min. Twenty micrograms of cell extracts were separated by SDS-polyacrylamide gel electrophoresis and transferred onto a PVDF membrane. The membrane was incubated for 1 hr to overnight at 4° C. with an appropriated primary antibody, followed by reaction with a secondary antibody at room temperature for 1 hr. Peroxidase activity was detected by chemiluminescence with an ECL kit (Intron) as recommended by the manufacturer.\nThe molecular mechanism of the inhibitory activity of progerin against p53 was scrutinized and p53 responsibility to DNA damage was determined in human progeria cell lines (HGPS and WS). […] WS cells are known to be insensitive to DNA damage-induced p53 activation, and as previously observed, WS cells can also express progerin.\nKeeping in mind the fact that p53 is tightly regulated by the MDM2 pathway, the engagement of progerin with MDM2-mediated p53 suppression was also tested by treatment of Nutlin-3, which is a blocker between MDM2 and p53 and induces p53 expression. […] Considering the results, the elevated expression of progerin would be involved in DNA damage-induced p53 activation and MDM2-mediaeted p53 suppression."}, "[2]": {"test_system": "transcriptional activity of p53", "test": "p21-luc luciferase assay", "format": "cell-based", "conditions": "C2 cells, Adr treatment", "protocol": "To measure p21 activity, a p21-luc vector was co-transfected, together with si RNAs, to 293 cells for 24 hrs. The cells were washed and treated with adriamycin for 2 hrs. After they were washed with a wash buffer (Promega), the cells were lyzed in a lysis buffer. Luciferase activity was determined using a luminometer.\nTo confirm the re-activation of p53 in response to progerin knock down, the transcriptional activity of p53 was monitored using a p21-luc system."}, "RCC": {"test_system": "RCC", "test": "nuclear irregularity of RCC (Example 2)", "format": "cell-based, human", "experimental": "Based on our observation that the nuclear irregularity of RCC is caused by progerin and improved by FTI, the JH compounds were also examined for effect on RCC. Like FTI, the JH compounds ameliorated nuclear irregularity (FIG. 25). […] They were tested in vivo."}, "Prg-LMN A binding": {"molecular_target": "T1, Prg-LMN A binding (Homo sapiens, UniProt P02545)", "T1 sequence (P02545 515-614 isoform P02545-6 limits assumed)": "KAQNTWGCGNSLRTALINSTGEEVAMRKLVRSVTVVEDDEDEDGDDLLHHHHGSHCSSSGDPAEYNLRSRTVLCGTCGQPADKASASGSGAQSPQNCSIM", "conditions": "GST-pull down, cell lysate", "protocol": "For the binding assay, GST-bead-fused Lamin A-C or progerin-C was incubated for 2 hrs at room temperature with a lysate of 293 cells transfected with the lamin A-N terminal region, or GFP-Lamin A, B or C. After washing twice with PBS and once with RIPA, the precipitates were collected, and subjected into SDS-PAGE and Western blot analysis with anti-GFP, His, and GST antibodies.\nThe candidates were examined for inhibitory activity against LMN A-progerin binding by an in vitro binding assay. […] Also, the compounds were analyzed for in vivo cellular effect by performing IP with a progerin antibody in HGPS fibroblasts after treatment with them for 24 hrs."}, "HGPS cells [3]": {"test_system": "HGPS cells", "test": "nuclear LMN A/C staining in two kinds of HGPS cells", "format": "cell-based, human", "conditions": "for nuclear deformation: two kinds of HGPS cells, incubation for 24 hrs"}, "progerin-Lamin A binding": {"molecular_target": "T2, progerin-Lamin A binding (Homo sapiens, UniProt P02545)", "T2 sequence (P02545 515-614 isoform P02545-6 limits assumed)": "T1 sequence (P02545 515-614 isoform P02545-6 limits assumed)", "test": "ELISA-based screening of LMN A-Prg binding inhibitors", "conditions": "0.1 mM final concentration", "experimental": "To isolate a Lamin A-Prg binding inhibitor, ELISA analysis was carried out. GST-progerin-C or LMN A-His was fixed with 0.5% paraformaldehyde on 96-well plates. After drying and washing steps, lysates of HEK 293 cells transfected with GFP-Lamin A, GST-Lamin A-C, or GST-progerin-C were incubated for 1 hr with a 0.1 mM (final concentration) binding inhibitor of the present invention. The 96-well plates were washed with TBST, followed by reaction with an anti-GFP-Ab (1:10,000, 45 min), an anti-GST-Ab (1:10,000, 45 min) and an anti-mouse-IgG-HRP (1:50,000, 30 min). The plates were washed twice, and incubated with a TMB solution (Calbiochem) and then with a stop solution (1 N H2SO4). Absorbance was read on an ELISA reader.\nIf progerin-induced senescence is mediated by binding LMN A, an inhibitor against binding between LMN A and progerin would block the progerin-induced pathological features. […] In this regard, an ELISA-based screening system was established. Briefly, progerin immobilized in 96-well plates was incubated with candidates from a chemical library, together with GFP-LMN A. Subsequently, association between progerin and the GFP protein was monitored in the presence of the inhibitor candidates (FIG. 15A). From the chemical library, four effective different compounds (JH-0307809; JH1, JH-02051109; JH13, JH-03070708; JH4, and LG-02-089-23; LG-02) were selected (FIGS. 15B and 16B), and analyzed by the monitoring (FIG. 16A). […] Their cytotoxicity was evaluated by MTT assay (FIGS. 15B and 16C)."}, "[4]": {"test_system": "association between LMN A and LMN B"}, "LMN A-progerin binding": {"molecular_target": "LMN A-progerin binding (Homo sapiens, UniProt P02545)", "conditions": "in vitro binding assay"}, "[5]": {"molecular_target": "self association of LMN A (Homo sapiens, UniProt P02545)", "sequence (P02545 whole entry)": "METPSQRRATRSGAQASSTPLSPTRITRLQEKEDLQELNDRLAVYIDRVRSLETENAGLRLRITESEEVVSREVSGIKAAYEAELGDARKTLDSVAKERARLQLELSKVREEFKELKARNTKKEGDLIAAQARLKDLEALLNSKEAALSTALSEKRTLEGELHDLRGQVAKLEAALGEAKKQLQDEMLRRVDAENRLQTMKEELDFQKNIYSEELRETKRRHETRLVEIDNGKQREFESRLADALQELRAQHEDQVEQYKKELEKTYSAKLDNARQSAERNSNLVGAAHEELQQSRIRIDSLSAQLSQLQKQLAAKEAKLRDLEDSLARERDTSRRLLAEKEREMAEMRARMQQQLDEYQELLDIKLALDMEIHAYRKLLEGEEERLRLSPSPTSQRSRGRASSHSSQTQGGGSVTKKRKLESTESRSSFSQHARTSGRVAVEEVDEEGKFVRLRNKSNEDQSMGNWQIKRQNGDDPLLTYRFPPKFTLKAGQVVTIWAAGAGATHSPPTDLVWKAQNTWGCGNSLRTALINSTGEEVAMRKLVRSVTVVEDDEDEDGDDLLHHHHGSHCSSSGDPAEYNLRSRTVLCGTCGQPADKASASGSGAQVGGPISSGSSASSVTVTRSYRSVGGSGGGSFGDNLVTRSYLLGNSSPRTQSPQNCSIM"}, "HGPS and normal cells": {"test_system": "HGPS and normal cells", "test": "senescence-specific β-galactosidase staining (SA-β-Gal)", "format": "cell-based, human", "experimental": "For senescence-specific acidic-β-galactosidase activity staining, cells were washed once with PBS (pH 7.2) and fixed with PBS containing 0.5% glutaraldehyde. After being washed with PBS, the cells were stained overnight at 37° C. in an X-gal solution (Senescence β-Galactosidase Staining kit; Cell Signaling Technology)."}, "normal fibroblasts": {"test_system": "normal fibroblasts", "test": "cell counting, normal fibroblasts", "format": "cell-based, human", "experimental": "(§1) For cell counting, cells were harvested from media, and stained for 10 min at room temperature with Trypan blue. Viable cells were counted using a hemocytometer."}, "HGPS cells [6]": {"test_system": "HGPS cells", "test": "cell counting, HGPS cells", "format": "cell-based, human", "experimental": "as §1"}, "p53 [7]": {"test_system": "p53", "test": "p53 expression and DNA damage response in RCC cell lines", "format": "cell-based, human", "conditions": "C2 and Caki-2 cell lines", "protocol": "In addition, p53 expression and responsibility for DNA damage in Caki-2 were determined after transfection with si-progerin."}}, "data": [{"smiles": "COc1cccc2c1C(=O)c1c(O)c3c(c(O)c1C2=O)C[C@@](O)(C(=O)CO)C[C@@H]3O[C@H]1C[C@H](N)[C@H](O)[C@H](C)O1", "note": "[Adr, adriamycin]", "values": [{"measurement": "p53 induction", "setting": "p53 [1]; HGPS cells", "value": "did not show the induction of p53"}, {"measurement": "p53 induction", "setting": "p53 [1]; Werner syndrome (WS) cells", "value": "did not show the induction of p53"}, {"measurement": "p53 induction", "setting": "p53 [1]; normal cells", "value": "obviously increased"}, {"measurement": "p21-luc expression / activation", "setting": "[2]", "value": "did not increase p21-luc expression"}]}, {"smiles": "COC(=O)[C@H](CCSC)NC(=O)c1ccc(NC[C@@H](N)CS)cc1-c1ccccc1", "note": "[FTI]", "values": [{"measurement": "nuclear irregularity of RCC", "setting": "RCC", "value": "improved"}, {"measurement": "blocking of Prg-LMN A interaction", "setting": "Prg-LMN A binding", "value": "block the interaction, but slightly"}]}, {"smiles": "CC1(C)Oc2cc3oc(=O)ccc3cc2C[C@@H]1OC(=O)CCc1ccc(O)c(O)c1", "note": "[JH1, (7S)-(+)-3-(3,4-Dihydroxyphenyl)propionic acid, 8,8-dimethyl-2-oxo-6,7-dihydro-2H,8H-pyrano[3,2-g]chromen-7-yl-ester]", "values": [{"measurement": "nuclear deformation", "setting": "HGPS cells [3]", "value": "ameliorated the nuclear deformation"}, {"measurement": "inhibition of association between immobilized progerin and GFP-LMN A (screening)", "setting": "progerin-Lamin A binding", "value": "effective"}]}, {"smiles": "CC1(C)Oc2cc3oc(=O)ccc3cc2C[C@@H]1OC(=O)C=Cc1cccnc1", "note": "[JH4, (7S)-(+)-3-(3-Pyridyl)-acrylic acid, 8,8-dimethyl-2-oxo-6,7-dihydro-2H,8H-pyrano[3,2-g]chromen-7-yl-ester]", "values": [{"measurement": "nuclear deformation, effect relative to the other compounds", "setting": "HGPS cells [3]; HGPS cells (FIG. 17D)", "value": "more obvious effect than the other compounds"}, {"measurement": "nuclear deformation", "setting": "HGPS cells [3]", "value": "ameliorated the nuclear deformation"}, {"measurement": "disruption of association between LMN A and LMN B", "setting": "[4]", "value": "did not disrupt"}, {"measurement": "inhibitory activity against LMN A-progerin binding", "setting": "LMN A-progerin binding", "value": "block LMN A-progerin binding"}, {"measurement": "disruption of self association of LMN A", "setting": "[5]", "value": "did not disrupt"}, {"measurement": "inhibition of association between immobilized progerin and GFP-LMN A (screening)", "setting": "progerin-Lamin A binding", "value": "effective"}, {"measurement": "SA-β-gal", "setting": "HGPS and normal cells", "value": "could suppress SA-β-gal"}, {"measurement": "effect on LMN A mutants related with laminopathy", "setting": "LMN A mutants", "value": "did not show a favorable effect"}, {"measurement": "cell proliferation", "setting": "normal fibroblasts", "value": "induced cell proliferation"}, {"measurement": "cell proliferation", "setting": "HGPS cells [6]", "value": "promoted cell proliferation"}]}, {"smiles": "CC1(C)Oc2cc3oc(=O)ccc3cc2C[C@@H]1OC(=O)C=Cc1ccc(O)c(O)c1", "note": "[JH13, (7S)-(+)-3-(3,4-Dihydroxy-phenyl)-acrylic acid, 8,8-dimethyl-2-oxo-6,7-dihydro-2H,8H-pyrano[3,2-g]chromen-7-yl-ester]", "values": [{"measurement": "nuclear deformation", "setting": "HGPS cells [3]", "value": "ameliorated the nuclear deformation"}, {"measurement": "inhibitory activity against LMN A-progerin binding", "setting": "LMN A-progerin binding", "value": "block LMN A-progerin binding"}, {"measurement": "inhibition of association between immobilized progerin and GFP-LMN A (screening)", "setting": "progerin-Lamin A binding", "value": "effective"}, {"measurement": "blocking of Prg-LMN A interaction", "setting": "Prg-LMN A binding", "value": "blocking ability of JH4 and JH13 was also demonstrated"}]}, {"smiles": "CC1(C)Oc2ccc3oc(=O)ccc3c2C[C@@H]1OC(=O)C=Cc1ccc(O)c(O)c1", "note": "[LG-02, (6S)-(−)-3-(3,4-Dihydroxy-phenyl)-acrylic acid, 7,7-dimethyl-2-oxo-5,6-dihydro-7H-pyrano[3,2-f]chromen-6-yl-ester]", "values": [{"measurement": "inhibition of association between immobilized progerin and GFP-LMN A (screening)", "setting": "progerin-Lamin A binding", "value": "effective"}]}, {"smiles": "COc1ccc(C2=N[C@@H](c3ccc(Cl)cc3)[C@@H](c3ccc(Cl)cc3)N2C(=O)N2CCNC(=O)C2)c(OC(C)C)c1", "note": "[Nutlin-3]", "values": [{"measurement": "p53 induction", "setting": "p53 [1]; HGPS cells", "value": "partial response"}, {"measurement": "p53 induction", "setting": "p53 [1]; normal cells", "value": "induced p53 obviously"}, {"measurement": "p53 induction", "setting": "p53 [7]", "value": "did not induce p53 obviously"}]}]}
